# Entries after “also recorded” stand apart in the source; their conditions may differ. Like-named read-outs stand apart in the source and are kept apart here.
# What was measured:
# [1] = test system: Salmonella typhimurium histidine auxotrophs TA97a, TA98, TA100, TA102, TA1535, TA1537 and TA1538; details: cited from earlier work
# [2] = test system: Salmonella typhimurium histidine auxotrophs TA97a, TA98, TA100, TA102, TA1535, TA1537 and TA1538; assay: Salmonella/Mammalian Microsomal Reverse Mutation Assay (Ames Test); type: cell-based; details: for Ames test mutagenicity classification, early screens: early screens of nucleic acid complexing compounds; for increase in revertants compared to vehicle control (DMSO), TA97a: tester strain TA97a; for increase in revertants compared to vehicle control (DMSO), TA98: tester strain TA98; for increase in revertants compared to vehicle control (DMSO), TA100: tester strain TA100; for increase in revertants compared to vehicle control (DMSO), TA102: tester strain TA102; for increase in revertants compared to vehicle control (DMSO), TA1535: tester strain TA1535; for increase in revertants compared to vehicle control (DMSO), TA1537: tester strain TA1537; for increase in revertants compared to vehicle control (DMSO), TA1538: tester strain TA1538
# Protocol: The Ames assay was performed using the method described by Ames (Ames et al Mutation Research 31 (1975) 347-364; Levin et al. PNAS 79 (1982) 7445-7449; Maron and Ames, Mutation Research 113 (1983) 173-215). Tester stains used were Salmonella typhimurium histidine auxotrophs TA97a, TA98, TA100, TA102, TA1535, TA1537 and TA1538. […] The test compounds, test vehicle and S9 (when appropriate) were combined with molten agar and then overlaid over a minimal agar plate. Following incubation at 37° C., revertant colonies were counted. When S9 was not used, 100 μl of tester strain and 50 μl of control or test compound were added to 2.5 ml of selective top agar. When S9 was used, 500 μl of S9 mix, 100 μl of tester strain and 50 μl of control or test compound was added to 2.0 ml of selective top agar. The top agar was then overlaid onto the surface of 25 ml of minimal bottom agar contained in a 15×100 mm Petri dish. The inverted plates were incubated for 52±4 hr at 37±2° C.
# The number of revertants was counted and the test compounds were either considered non-mutagenic or mutagenic. The criteria for determining if a test compound was mutagenic was based on a 2-fold increase in mean revertants per plate for at least one tester strain (TA97a, TA98, TA100 and TA102) over the mean revertants per plate of the appropriate vehicle control. For tester strains TA1535, TA1537 and TA 1538 a positive mutant was identified by a 3-fold increase in mean revertants per plate compared to the appropriate vehicle control. In addition, the increase in the mean number of revertants per plate needed to be accompanied by a dose response to increasing concentrations of the test compound. […] Thiazole orange was also considered mutagenic for two of the tester strains in the absence of S9. Thus, compared to ethidium bromide, thiazole orange is 3-4 times less mutagenic and Compound 1 is 4-5 times less mutagenic. Ethidium bromide and Sybr Green I had previously been tested wherein Sybr Green I was considered a weak mutagen (Singer et al. Mutation Research 439 (1999) 37-47).
# [3] = test system: cultured human lymphocytes; assay: Screening Assay for Chromosomal Aberrations in Cultured Human Peripheral Blood Mononuclear Cells (PBMC); type: cell-based
# Protocol: Human venous blood from healthy adult volunteers was drawn in heparinized vacutainers. The whole blood cultures were initiated in 15 ml centrifuge tubes by adding approximately 0.3 ml of fresh heparinized blood into a sufficient volume of culture medium, to that the final volume was 5 mL in the assay with and without metabolic activation after the addition of the test compound. The culture medium was RPMI 1640 supplemented with approximately 20% heat-inactivated fetal bovine serum (FBS), penicillin (100 units/mL), streptomycin (100 μg/mL), L-glutamine (2 mM) and 2% phytohemagglutinin M (PHA-M). The cultures were incubated with loose caps at 37° C.±2° C. in a humidified chamber of approximately 5% CO2 in air.
# The in vitro metabolic activation system consisted of a rat liver post-mitochondrial fraction (S9) and an energy-producing system (NADPH plus isocitric acid) (Maron and Ames, 113 Mutation Research (1983) 173-215).
# Two days after culture initiation, the cultures were treated with the test compounds. […]
# At the end of the incubation period the cultures were centrifuged, the supernatant discarded, and the cells swollen with 75 mM KCl, fixed in methanol:glacial acetic acid (3:1 v/v), dropped onto glass slides and air dried. The slides were stained with 5% Giemsa and air dried and then analyzed for mitotox index, chromosomal aberrations including polyploidy and endoreduplication.
# DNA in a 1% agarose gel = assay: Detection of DNA separated and immobilized in an agarose gel; details: for ability to detect nucleic acid immobilized in a gel by electrophoresis: excited with UV light, about 300 nm
# [4] = test system: Syrian hamster embryo (SHE) cells; details: for RPE (relative plating efficiency) / MT Frequency (%): Syrian hamster, 7 day
# [5] = Hazardous Waste Screening Test (toxicity to aquatic life); type: in vivo, Pimephakes promelas; details: fathead minnow (Pimephakes promelas), in vivo, other: exposure in tank water containing the compound; fathead minnows; 96 hour exposure
# Protocol: (§1) Compound 1 was tested to determine whether or not the compound was hazardous or toxic to aquatic life. Ten fathead minnows (Pimephakes promelas) were placed each in a 8 liter tank containing vehicle control and a concentration of Compound 1 at 250 mg/L, 500 mg/L and 750 mg/L. After a 96 hour exposure period the number of viable minnows were counted. The survival rate of the minnows for the control and Compound 1 was 100%. Thus, compound 1 has a LC50 value […], which is classified as not hazardous under CCR Title 22 acute toxicity to aquatic life.
# [6] = test system: fathead minnows (Pimephakes promelas); assay: as above; type: in vivo
# Protocol: as §1
# [7] = test system: MRC5 human lung fibroblast cells; assay: Cell Permeability on Live Eukaryotic Cells; type: cell-based; details: 0.5, 1.0, 5.0 and 10.0 μM; 5 minutes at 37° C.; fluorescence microscopy
# Protocol: MRC5 human lung fibroblast cells were harvested and grown in complete culture media (DMEM+10% FBS) for one day after seeding coverslips. Cells were then removed from complete media and placed in Hank's balanced salt solution w/sodium bicarbonate (HBSS) supplemented with 5 mM HEPES, 100 uM L-glutamine and 100 uM succinate containing varying concentrations of Compound 1. Concentrations tested included 0.5, 1.0, 5.0 and 10.0 μM. Cells were incubated for 5 minutes at 37° C./[…] Cells were washed 3×30 seconds in HBSS and mounted on microscope slides in HBSS and sealed with paraffin. After mounting, slides were examined on a Nikon Eclipse 800 upright fluorescent microscope and imaged with standard FITC and TRITC filter sets, a Princeton Instrument MicroMax cooled CCD camera, and Universal Imaging MetaMorph imaging software. […] Signal associated with Compound 1 is detectable with both FITC and TRITC filter sets with greater signal intensity using the FITC set. Regardless of concentration, nucleolar labeling seems to be the most prominent and appears to become slightly more prominent at lower concentrations. Off cell background was minimal in all cases.
# [8] = NPDES testing for compliance with the Clean Water Act
# Protocol: The testes were performed according to EPA protocols cited in Table 9.
# [9] = test system: Syrian hamster embryo (SHE) cells; assay: In Vitro Transformation of Syrian Hamster Embryo (SHE) Cells by 7-Day Exposure Screening Assay
# [10] = in the presence of S9 (rat liver extract)
Structure (SMILES),"Ames test mutagenicity classification, early screens [2]","Ames test mutagenicity classification [2, 10]","increase in revertants compared to vehicle control (DMSO), TA97a [2]","increase in revertants compared to vehicle control (DMSO), TA98 [2]","increase in revertants compared to vehicle control (DMSO), TA100 [2]","increase in revertants compared to vehicle control (DMSO), TA102 [2]","increase in revertants compared to vehicle control (DMSO), TA1535 [2]","increase in revertants compared to vehicle control (DMSO), TA1537 [2]","increase in revertants compared to vehicle control (DMSO), TA1538 [2]",ability to detect nucleic acid immobilized in a gel by electrophoresis (DNA in a 1% agarose gel),RPE (relative plating efficiency) ([4]; 0.04 μg/mL),RPE (relative plating efficiency) ([4]; 0.26 μg/mL),other results
CCCN(CCCN(C)C)c1cc(/C=C2/Sc3ccccc3N2C)c2ccccc2[n+]1-c1ccccc1 [Sybr Green I],–,–,–,–,–,–,–,–,–,–,–,–,"Ames test mutagenicity classification (previously tested, literature) [1]: weak mutagen"
"CN1C=C/C(=C\c2sc3ccccc3[n+]2C)c2ccccc21 [Thiazole orange, thiazole orange]",either mildly mutagenic or non-mutagenic,mutagenic,6.9,6.4,2.2,4.7,1.5,17.4,7.8,able to detect nucleic acid,97%,25%,"Ames test mutagenicity classification ([2]; in the absence of S9, two of the tester strains): mutagenic; Chromosomal Aberrations Test, cultured human peripheral blood lymphocytes: result [3]: negative; Transformation Test, Syrian hamster embryo (SHE) cells: result [4]: positive; RPE (relative plating efficiency) ([4]; 0.15 μg/mL): 52%"
CCC[n+]1ccc(/C=C2\Sc3ccccc3N2C)c2ccccc21 [Compound 1],either mildly mutagenic or non-mutagenic,mild or non-mutagenic; also recorded: Weakly positive,3.3,3.0,1.7,3.7,1.8,1.8,3.7,able to detect nucleic acid,97%,25%,"times less mutagenic compared to ethidium bromide ([2]; Ames test): 4-5 times; LC50 at 96 h [5]: > 500 µg/mL; survival rate of the minnows ([6]; 250 mg/L, 500 mg/L and 750 mg/L, 96 hour exposure): 100%; hazard classification, acute toxicity to aquatic life ([6]; CCR Title 22): not hazardous; also recorded: non-hazardous to aquatic life; cell permeability in live cells [7]: cell permeable; compliance with the Clean Water Act and NPDES regulations [8]: complies; sensitivity of nucleic acid detection in a gel (DNA in a 1% agarose gel; 1% agarose gel, post-stained 30, 60 and 90 minutes, 1 μM in TBE, 62.5 ng to 30.52 pg DNA): at least as sensitive as ethidium bromide; MT Frequency (%) ([4]; 0.04 μg/mL): 0.731%; MT Frequency (%) ([4]; 0.05 μg/mL): 0.442%; RPE (relative plating efficiency) ([4]; 0.05 μg/mL): 120%; MT Frequency (%) ([4]; 0.2 μg/mL): 0.313%; RPE (relative plating efficiency) ([4]; 0.2 μg/mL): 85%; MT Frequency (%) ([4]; 0.26 μg/mL): 0.294%; MT Frequency (%) ([4]; 0.3 μg/mL): 0.144%; RPE (relative plating efficiency) ([4]; 0.3 μg/mL): 59%; MT Frequency (%) ([4]; 0.4 μg/mL): 1.304%; RPE (relative plating efficiency) ([4]; 0.4 μg/mL): 66%; MT Frequency (%) ([4]; 0.8 μg/mL): 0.635%; RPE (relative plating efficiency) ([4]; 0.8 μg/mL): 28%"
"CC[n+]1c(-c2ccccc2)c2cc(N)ccc2c2ccc(N)cc21 [Ethidium bromide, ethidium bromide]",–,mutagenic,4.4,68.0,1.6,2.0,1.4,15,80,–,–,–,"Chromosomal Aberrations Test, cultured human peripheral blood lymphocytes: result ([3]; with and without S9 metabolic activation): negative; Ames test mutagenicity classification (previously tested, literature) ([1]; McCann et al. 1975, Singer et al. 1999): mutagenic; RPE (relative plating efficiency) ([9]; 0.200 μg/mL): 85%; RPE (relative plating efficiency) ([9]; 0.400 μg/mL): 66%; RPE (relative plating efficiency) ([9]; 0.800 μg/mL): 28%; Transformation Test, Syrian hamster embryo (SHE) cells: result ([9]; morphological transformation vs vehicle control): positive"
